Assay results taken from ChEMBL document CHEMBL4477208, “Discovery and Rational Design of Pteridin-7(8H)-one-Based Inhibitors Targeting FMS-like Tyrosine Kinase 3 (FLT3) and Its Mutants” (J Med Chem, 2016).

Assays:
MV4-11 [1] = assay: Cell cycle arrest in human MV4-11 cells assessed as accumulation at G2 phase at 10 nM after 48 hrs by PI/RNase staining based FACS analysis (reference value: 13.95%); type: functional
MV4-11 [2] = assay: Induction of apoptosis in human MV4-11 cells assessed as late apoptotic cells at 1 nM after 48 hrs by annexin V/propidium iodide staining based FACS analysis (reference value: 3.01%); type: functional
MV4-11 [3] = assay: Induction of apoptosis in human MV4-11 cells assessed as late apoptotic cells at 1000 nM after 48 hrs by annexin V/propidium iodide staining based FACS analysis (reference value: 3.01%); type: functional
MV4-11 [4] = assay: Induction of apoptosis in human MV4-11 cells assessed as necrotic cells at 100 nM after 48 hrs by annexin V/propidium iodide staining based FACS analysis (reference value: 0.05%); type: functional
NCI-H146 = assay: Antiproliferative activity against human NCI-H146 cells after 72 hrs by MTT assay; type: functional, cell-based; conditions: NCI-H146, 72 h
MV4-11 [5] = assay: Cell cycle arrest in human MV4-11 cells assessed as accumulation at subG1 phase at 100 nM after 48 hrs by PI/RNase staining based FACS analysis (reference value: 0%); type: functional
MV4-11 [6] = assay: Induction of apoptosis in human MV4-11 cells assessed as late apoptotic cells at 10000 nM after 48 hrs by annexin V/propidium iodide staining based FACS analysis (reference value: 3.01%); type: functional
[7] = Oral bioavailability in overnight fasted Sprague-Dawley rat plasma at 10 mg/kg administered via oral gavage up to 24 hrs by LC-MS/MS analysis; type: ADME, organism-based
[8] = system: Receptor-type tyrosine-protein kinase FLT3 (Homo sapiens), P36888 [N841I]; assay: Inhibition of human FLT3 N841I mutant expressed in bacterial system assessed as remaining enzyme activity at 1 uM relative to untreated control
MV4-11 [9] = assay: Induction of apoptosis in human MV4-11 cells assessed as late apoptotic cells at 100 nM after 48 hrs by annexin V/propidium iodide staining based FACS analysis (reference value: 3.01%); type: functional
MV4-11 [10] = assay: Induction of apoptosis in human MV4-11 cells assessed as dead cells after 48 hrs by annexin V/propidium iodide staining based FACS analysis; type: functional, cell-based
MV4-11 [11] = assay: Induction of apoptosis in human MV4-11 cells assessed as viable cells at 1 nM after 48 hrs by annexin V/propidium iodide staining based FACS analysis (reference value: 90.60%); type: functional; conditions: MV4-11, 48 h, read-out: Activity
[12] = Cmax in overnight fasted Sprague-Dawley rat plasma at 10 mg/kg administered via oral gavage up to 24 hrs by LC-MS/MS analysis; type: ADME, organism-based; parameters: dose 10 mg/kg, route oral
[13] = molecular target: Dual specificity mitogen-activated protein kinase kinase 5 (Homo sapiens) (UniProt Q13163); assay: Inhibition of human MEK5 expressed in mammalian system assessed as remaining enzyme activity at 1 uM relative to untreated control
RS4-11 = assay: Antiproliferative activity against human RS4:11 cells after 72 hrs by MTT assay; type: functional, cell-based; conditions: RS4-11, 72 h
NCI-H1299 = assay: Antiproliferative activity against human H1299 cells after 72 hrs by SRB assay; type: functional, cell-based; conditions: NCI-H1299, 72 h
[14] = molecular target: Platelet-derived growth factor receptor beta (Homo sapiens) (UniProt P09619); assay: Inhibition of human PDGFRB expressed in bacterial system assessed as remaining enzyme activity at 1 uM relative to untreated control
[15] = molecular target: Receptor-type tyrosine-protein kinase FLT3 (Homo sapiens) (UniProt P36888); assay: Inhibition of human FLT3 expressed in bacterial system assessed as remaining enzyme activity at 1 uM relative to untreated control
MV4-11 [16] = assay: Induction of apoptosis in human MV4-11 cells assessed as viable cells at 10000 nM after 48 hrs by annexin V/propidium iodide staining based FACS analysis (reference value: 90.60%); type: functional; conditions: MV4-11, 48 h, read-out: Activity
MV4-11 [17] = assay: Induction of apoptosis in human MV4-11 cells assessed as viable cells at 100 nM after 48 hrs by annexin V/propidium iodide staining based FACS analysis (reference value: 90.60%); type: functional; conditions: MV4-11, 48 h, read-out: Activity
MV4-11 [18] = assay: Cell cycle arrest in human MV4-11 cells assessed as accumulation at S phase at 10 nM after 48 hrs by PI/RNase staining based FACS analysis (reference value: 16.50%); type: functional
[19] = Tmax in overnight fasted Sprague-Dawley rat plasma at 10 mg/kg administered via oral gavage up to 24 hrs by LC-MS/MS analysis; type: ADME, organism-based
MV4-11 [20] = assay: Cell cycle arrest in human MV4-11 cells assessed as cell debris level at 100 nM after 48 hrs by PI/RNase staining based FACS analysis; type: functional
[21] = Half life in overnight fasted Sprague-Dawley rat plasma at 10 mg/kg administered via oral gavage up to 24 hrs by LC-MS/MS analysis; type: ADME, organism-based
SH-SY5Y = assay: Antiproliferative activity against human SH-SY5Y cells after 72 hrs by SRB assay; type: functional, cell-based
[22] = molecular target: T1, Receptor-type tyrosine-protein kinase FLT3 (Homo sapiens, UniProt P36888)
T1 sequence (P36888 whole entry): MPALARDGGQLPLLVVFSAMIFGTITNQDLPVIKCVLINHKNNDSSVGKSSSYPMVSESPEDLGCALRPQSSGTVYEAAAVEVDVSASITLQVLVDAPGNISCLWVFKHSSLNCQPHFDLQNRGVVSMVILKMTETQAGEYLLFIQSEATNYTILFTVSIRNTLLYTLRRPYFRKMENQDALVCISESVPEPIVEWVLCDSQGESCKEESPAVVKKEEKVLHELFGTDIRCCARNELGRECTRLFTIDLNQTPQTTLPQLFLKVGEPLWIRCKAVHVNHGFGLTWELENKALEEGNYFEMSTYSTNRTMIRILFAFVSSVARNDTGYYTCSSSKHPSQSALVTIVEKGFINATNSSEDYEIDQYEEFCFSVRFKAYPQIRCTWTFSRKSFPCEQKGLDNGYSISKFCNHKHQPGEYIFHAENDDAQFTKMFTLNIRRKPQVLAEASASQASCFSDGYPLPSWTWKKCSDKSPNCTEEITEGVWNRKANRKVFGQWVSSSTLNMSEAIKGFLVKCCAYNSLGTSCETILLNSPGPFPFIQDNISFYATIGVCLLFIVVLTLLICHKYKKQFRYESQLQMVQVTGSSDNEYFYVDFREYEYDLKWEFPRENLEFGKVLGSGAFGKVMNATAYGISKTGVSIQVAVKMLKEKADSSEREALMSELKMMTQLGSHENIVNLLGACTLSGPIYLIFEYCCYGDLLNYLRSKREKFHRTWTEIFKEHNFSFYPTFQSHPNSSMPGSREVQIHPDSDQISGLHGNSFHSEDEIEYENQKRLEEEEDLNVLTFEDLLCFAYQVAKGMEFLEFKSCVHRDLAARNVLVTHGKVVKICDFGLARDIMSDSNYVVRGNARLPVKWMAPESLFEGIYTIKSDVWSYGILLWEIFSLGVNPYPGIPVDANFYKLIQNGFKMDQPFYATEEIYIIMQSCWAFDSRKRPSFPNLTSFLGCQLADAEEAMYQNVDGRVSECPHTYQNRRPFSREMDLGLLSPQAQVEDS
Description: Inhibition of human N-terminal GST-tagged FLT3 (564 to 993 residues) expressed in baculovirus expression system using peptide FAM-P2 as substrate incubated for 10 mins followed by substrate addition by mobility shift assay

Chain of Platelet-derived growth factor receptor beta (Homo sapiens) (P09619 whole entry): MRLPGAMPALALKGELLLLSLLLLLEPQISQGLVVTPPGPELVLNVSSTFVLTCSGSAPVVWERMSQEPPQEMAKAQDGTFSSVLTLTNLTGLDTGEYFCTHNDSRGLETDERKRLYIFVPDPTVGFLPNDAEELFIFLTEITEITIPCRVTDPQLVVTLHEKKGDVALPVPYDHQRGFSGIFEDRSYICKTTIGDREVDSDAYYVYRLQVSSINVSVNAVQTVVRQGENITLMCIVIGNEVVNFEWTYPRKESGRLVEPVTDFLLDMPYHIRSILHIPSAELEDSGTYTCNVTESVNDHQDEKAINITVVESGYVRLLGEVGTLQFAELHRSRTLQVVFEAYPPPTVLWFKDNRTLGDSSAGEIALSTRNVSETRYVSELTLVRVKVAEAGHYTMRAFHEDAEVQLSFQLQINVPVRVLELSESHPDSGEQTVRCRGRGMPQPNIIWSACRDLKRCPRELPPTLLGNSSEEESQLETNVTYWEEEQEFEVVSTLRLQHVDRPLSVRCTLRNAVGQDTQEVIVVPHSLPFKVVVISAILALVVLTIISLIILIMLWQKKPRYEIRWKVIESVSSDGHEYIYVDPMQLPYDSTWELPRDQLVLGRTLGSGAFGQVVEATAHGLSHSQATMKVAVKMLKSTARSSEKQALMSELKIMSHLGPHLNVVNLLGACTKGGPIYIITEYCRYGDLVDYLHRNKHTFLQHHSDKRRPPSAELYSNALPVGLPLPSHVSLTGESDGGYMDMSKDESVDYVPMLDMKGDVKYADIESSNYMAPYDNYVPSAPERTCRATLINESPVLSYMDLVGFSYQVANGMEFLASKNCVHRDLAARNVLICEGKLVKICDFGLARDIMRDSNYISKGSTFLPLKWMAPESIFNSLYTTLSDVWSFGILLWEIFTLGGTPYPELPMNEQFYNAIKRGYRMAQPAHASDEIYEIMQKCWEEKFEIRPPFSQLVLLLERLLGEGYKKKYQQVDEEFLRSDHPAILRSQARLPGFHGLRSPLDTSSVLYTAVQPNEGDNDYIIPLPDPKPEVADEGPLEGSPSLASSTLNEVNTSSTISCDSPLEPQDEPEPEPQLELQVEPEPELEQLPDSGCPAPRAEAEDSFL
Chain of Dual specificity mitogen-activated protein kinase kinase 5 (Homo sapiens) (Q13163 whole entry): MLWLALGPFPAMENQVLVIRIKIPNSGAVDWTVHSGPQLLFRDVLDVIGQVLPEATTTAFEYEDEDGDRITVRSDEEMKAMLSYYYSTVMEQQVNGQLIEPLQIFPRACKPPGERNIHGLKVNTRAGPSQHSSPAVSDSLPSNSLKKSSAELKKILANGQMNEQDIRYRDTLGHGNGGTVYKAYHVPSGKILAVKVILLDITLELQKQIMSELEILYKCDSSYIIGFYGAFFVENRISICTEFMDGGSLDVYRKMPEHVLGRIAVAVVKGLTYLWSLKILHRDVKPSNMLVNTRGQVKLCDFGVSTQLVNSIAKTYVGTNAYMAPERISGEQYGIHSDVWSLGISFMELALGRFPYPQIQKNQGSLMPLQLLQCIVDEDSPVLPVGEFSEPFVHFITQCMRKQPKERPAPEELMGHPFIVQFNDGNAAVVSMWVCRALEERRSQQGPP

Cc1cc(Nc2ncc3ncc(=O)n(-c4ccc(N)cc4)c3n2)ccc1N1CCN(C)CC1
Activity (MV4-11 [1]): 11.4% | Activity (MV4-11 [2]): 3.49% | Activity (MV4-11 [3]): 34.3% | Activity (MV4-11 [4]): 0.25% | IC50 (NCI-H146): > 10 µM | Activity (MV4-11 [5]): 12% | Activity (MV4-11 [6]): 31.3% | bioavailability [7]: 26.4% | Activity [8]: < 1% | Activity (MV4-11 [9]): 16.4% | Activity (MV4-11 [10]): Dose-dependent effect | viability at 0.001 µM (MV4-11 [11]): 90.3% | Cmax [12]: 41 ng/mL | Activity [13]: < 1% | IC50 (RS4-11): 0.925 µM | IC50 (NCI-H1299): 4.88 µM | Activity [14]: < 1% | Activity [15]: < 1% | viability at 10 µM (MV4-11 [16]): 0.02% | viability at 0.1 µM (MV4-11 [17]): 60.3% | Activity (MV4-11 [18]): 18.4% | Tmax [19]: 2.17 h | Activity (MV4-11 [20]): 12.02% | half-life [21]: 4.49 h | IC50 (SH-SY5Y): 5.57 µM | IC50 [22]: 0.00156 µM
